Test results as given in patent publication US20250093263A1, “FRET-BASED ASSAYS” (The General Hospital Corporation, priority 2021, published 2025).

What was measured:
[1] = molecular target: HDAC1-HaloTag in HEK293T cells (Homo sapiens, UniProt Q13547); test: Cellular TR-FRET target engagement assay, HDAC1-HaloTag in HEK293T cells; assay type: cell-based; settings: HEK-293T, read-out: Cellular TR-FRET assay SAHA-NCT 1 μM EC50 column: % @ 100
Protocol: Separately, stock solutions of plasmid DNA (pFC14A-HDAC1-HaloTag; 16 μg/mL) and PEI-MAX (48 μg/mL) were prepared in PBS such that the final volume of each stock solution was 1:20 of the volume of suspension cells in culture media (1:3 w/w DNA:PEI-MAX). The solutions were thoroughly mixed, then the DNA solution was added slowly to the PEI solution and the resulting transfection cocktail (1:10 volume of suspension) was incubated for 20 min at room temperature. The transfection cocktail was added to the cell suspension (final concentrations: 0.8 μg/mL DNA, 2.4 μg/mL PEI-MAX, 350,000 cells/mL) and the 12 mL suspension was added to a 10 cm dish. Cells were grown for 24 h at 37° C. and 5% CO2.
After, media was aspirated and cells were quickly washed with 12 mL phenol red-free DMEM+10% FBS, followed by one 30 min wash at 37° C. and 5% CO2. Cells were washed with PBS, trypsinized, counted, and pelleted.

[2] = molecular target: T1, BRD4(BD2) (Homo sapiens, UniProt O60885); test: TR-FRET saturation binding of JQ1-FITC, BRD4(BD2); settings: 0.5 nM GST-BRD4(BD2), 2 nM CoraFluor-1-labeled anti-GST VHH; read-out: KD,app BRD4(BD2)
T1 construct: validated for its applicability with individual recombinant bromodomains BRD4(BD1) and BRD4(BD2); purchased Epicypher, Inc 15-0013
Protocol: (§1) TR-FRET measurements: unless otherwise noted, experiments were performed in white, 384-well microtiter plates (Corning 3572) in 30 μL assay volume. […] The 490/10 and 520/10 emission channels were acquired with a 50% mirror and a dichroic 510 mirror, respectively, using independently optimized detector gain settings unless specified otherwise. The TR-FRET ratio was taken as the 520/490 nm intensity ratio on a per-well basis.
(§2) Determination of apparent equilibrium dissociation constant (KD,app) of JQ1-FITC toward individual recombinant bromodomains and endogenous BRD4 in MCF7 lysate: recombinant BRD4(BD1) and BRD4(BD2) were purchased from BPS Biosciences, Inc and Epicypher, Inc (GST-BRD4(BD1), 31040; GST-BRD4(BD2), 15-0013, respectively). Recombinant bromodomains were diluted to 0.5 nM in assay buffer (25 mM HEPES, 150 mM NaCl, 0.5 mg/mL BSA, 0.005% TWEEN-20, pH 7.5) with 2 nM CoraFluor-1-labeled anti-GST VHH, then JQ1-FITC was added in serial dilution (1:1.6 titration, 15-point, cmax=100 nM) using a D300 digital dispenser (Hewlett-Packard) and allowed to equilibrate for 2 h at room temperature before TR-FRET measurements were taken. Nonspecific signal was determined with 50 μM JQ1-Acid, and data were fitted to a One Site—Specific Binding model in Prism 9.

[3] = molecular target: T2, BRD4(BD1) (Homo sapiens, UniProt O60885); test: TR-FRET saturation binding of JQ1-FITC, BRD4(BD1); settings: 0.5 nM GST-BRD4(BD1), 2 nM CoraFluor-1-labeled anti-GST VHH; read-out: KD,app BRD4(BD1)
T2 construct: validated for its applicability with individual recombinant bromodomains BRD4(BD1) and BRD4(BD2); purchased BPS Biosciences, Inc 31040
Protocol: as §1, §2

[4] = molecular target: T3, HscPheRS (human cytoplasmic PheRS) (Homo sapiens, UniProt Q9Y285); test: TR-FRET titration of tracer MAT588, HscPheRS; assay type: binding; settings: absence of substrates
T3 construct: HisHalo-HscPheRS; alpha subunit residues 1-508; beta subunit residues 1-589; made in house; host or cells: E. coli
T3 sequence (Q9Y285 1-508): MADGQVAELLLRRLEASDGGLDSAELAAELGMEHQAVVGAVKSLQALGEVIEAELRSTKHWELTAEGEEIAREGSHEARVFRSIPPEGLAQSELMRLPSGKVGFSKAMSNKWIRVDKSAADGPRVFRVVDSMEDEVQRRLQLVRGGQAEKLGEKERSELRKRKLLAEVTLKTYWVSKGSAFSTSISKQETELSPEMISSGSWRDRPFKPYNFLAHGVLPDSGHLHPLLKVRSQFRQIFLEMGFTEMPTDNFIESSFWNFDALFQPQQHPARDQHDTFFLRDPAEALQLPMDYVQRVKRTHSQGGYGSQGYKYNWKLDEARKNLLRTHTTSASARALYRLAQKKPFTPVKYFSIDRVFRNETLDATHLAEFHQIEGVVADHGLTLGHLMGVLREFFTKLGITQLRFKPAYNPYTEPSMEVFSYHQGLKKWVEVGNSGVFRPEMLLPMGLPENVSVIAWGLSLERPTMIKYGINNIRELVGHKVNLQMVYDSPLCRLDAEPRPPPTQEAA
T3 sequence (Q9NSD9 1-589 partner): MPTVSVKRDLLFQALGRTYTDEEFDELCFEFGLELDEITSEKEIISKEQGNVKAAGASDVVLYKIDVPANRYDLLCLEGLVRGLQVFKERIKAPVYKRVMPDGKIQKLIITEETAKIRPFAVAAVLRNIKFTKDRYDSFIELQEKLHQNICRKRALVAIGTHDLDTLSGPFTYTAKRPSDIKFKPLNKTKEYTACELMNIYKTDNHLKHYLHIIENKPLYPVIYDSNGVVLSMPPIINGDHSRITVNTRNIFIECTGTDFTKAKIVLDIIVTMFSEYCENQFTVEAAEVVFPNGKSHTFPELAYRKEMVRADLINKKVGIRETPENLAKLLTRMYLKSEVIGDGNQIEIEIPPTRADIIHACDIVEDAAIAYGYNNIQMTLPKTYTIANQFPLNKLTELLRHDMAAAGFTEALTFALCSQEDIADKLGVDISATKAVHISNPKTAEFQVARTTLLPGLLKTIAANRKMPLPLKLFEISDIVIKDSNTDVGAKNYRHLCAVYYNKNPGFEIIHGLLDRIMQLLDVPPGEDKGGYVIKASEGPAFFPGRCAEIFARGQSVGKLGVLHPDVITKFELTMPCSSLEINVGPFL

[5] = system: HsmPheRS (human mitochondrial PheRS); test: TR-FRET titration of tracer MAT588, HsmPheRS; assay type: binding
[6] = molecular target: T4, HsmPheRS (human mitochondrial PheRS) (Homo sapiens, UniProt O95363); test: TR-FRET titration of tracer MAT588, HsmPheRS; assay type: binding; settings: absence of substrates, titrating
T4 construct: rows headed: HsmPheRS KD; other: absence of substrates, titrating; human mitochondrial PheRS (HisHalo-HsmPheRS); fused on or other part: C-terminal HaloTag, HRV-3C site and His9 tag; the CoraFluor-1 terbium donor is attached through the HaloTag or by direct Pfp labelling
T4 sequence (O95363 42-357 limits assumed): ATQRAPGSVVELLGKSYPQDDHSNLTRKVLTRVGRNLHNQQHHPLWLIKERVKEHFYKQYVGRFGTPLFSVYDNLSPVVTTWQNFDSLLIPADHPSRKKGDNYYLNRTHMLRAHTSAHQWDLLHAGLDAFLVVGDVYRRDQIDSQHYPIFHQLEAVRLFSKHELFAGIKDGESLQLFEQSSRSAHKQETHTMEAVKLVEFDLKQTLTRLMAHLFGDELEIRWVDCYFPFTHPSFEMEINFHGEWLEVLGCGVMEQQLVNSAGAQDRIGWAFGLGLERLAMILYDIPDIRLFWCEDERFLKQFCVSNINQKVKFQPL

[7] = molecular target: HDAC1-HaloTag (Homo sapiens, UniProt Q13547)
Chain of HDAC1-HaloTag (Q13547 whole entry): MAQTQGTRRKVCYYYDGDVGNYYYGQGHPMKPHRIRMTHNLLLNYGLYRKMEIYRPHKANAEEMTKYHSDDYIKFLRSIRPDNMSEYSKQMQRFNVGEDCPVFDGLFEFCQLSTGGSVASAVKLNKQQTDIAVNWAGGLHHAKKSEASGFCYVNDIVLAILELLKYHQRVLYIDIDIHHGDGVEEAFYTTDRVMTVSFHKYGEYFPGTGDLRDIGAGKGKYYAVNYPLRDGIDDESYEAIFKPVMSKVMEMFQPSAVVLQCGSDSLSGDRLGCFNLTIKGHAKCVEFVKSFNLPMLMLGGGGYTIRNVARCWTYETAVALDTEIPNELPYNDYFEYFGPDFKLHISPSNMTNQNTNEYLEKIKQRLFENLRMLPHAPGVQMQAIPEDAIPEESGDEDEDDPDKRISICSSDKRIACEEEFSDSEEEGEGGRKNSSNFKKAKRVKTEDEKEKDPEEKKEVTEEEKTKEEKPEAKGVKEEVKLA

[8] = molecular target: T5, HDAC1 Recombinant (Homo sapiens, UniProt Q13547); test: HDAC1 enzymatic activity assay with recombinant protein; assay type: biochemical; settings: 5 nM HDAC1, 18 μM MAZ1600 substrate (3 × KM), 3 h incubation
T5 construct: purchased BPS Bioscience Inc 50051
T5 sequence (Q13547 whole entry): as above
Protocol: 7-Amino-4-methyl coumarin fluorescence was measured on a Tecan SPARK plate reader: 350/20 nm excitation, 460/10 nm emission.

[9] = molecular target: T5, HDAC1 Recombinant; test: TR-FRET assay with recombinant HDAC1; assay type: binding; settings: 5 nM HDAC1, 2.5 nM Tb-Anti-6xHis IgG, 20 nM SAHA-NCT, 3 h

Chain of HDAC1-HaloTag in HEK293T cells (Q13547 whole entry): as above

`CC(=O)Nc1ccc(C(=O)Nc2ccccc2N)cc1` [CI-994] was tested, and the inhibition at 100 µM [1] was < 5%.
In the case of `Cc1sc2c(c1C)C(c1ccc(Cl)cc1)=NC(CC(=O)NCCCOCCOCCOCCCNC(=S)Nc1ccc(-c3c4ccc(=O)cc-4oc4cc(O)ccc34)c(C(=O)O)c1)c1nnc(C)n1-2` (stereo not shown) [JQ1-FITC, 5-(3-(1-(4-(4-chlorophenyl)-2,3,9-trimethyl-6H-thieno[3,2-f][1,2,4]triazolo[4,3-a][1,4]diazepin-6-yl)-2-oxo-7,10,13-trioxa-3-azahexadecan-16-y)thioureido)-2-(6-hydroxy-3-oxo-3H-xanthen-9-yl)benzoic acid], the Kd [2] is reported as 5.8 ± 1.5 nM and the Kd [3] is reported as 6.5 ± 1.1 nM.
With `Nc1ncnc2c1ncn2[C@@H]1O[C@H](CN(CCCCCCOCCOCCNC(=O)c2ccc(C(=O)O)c(-c3c4ccc(=O)cc-4oc4cc(O)ccc34)c2)S(=O)(=O)NC(=O)[C@@H](N)Cc2ccccc2)[C@@H](O)[C@H]1O` [MAT588, 4-((2-(2-((6-((N-(L-phenylalanyl)sulfamoyl)(((2R,3S,4R,5R)-5-(6-amino-9H-purin-9-yl)-3,4-dihydroxytetrahydrofuran-2-yl)methyl)amino)hexyl)oxy)ethoxy)ethyl)carbamoyl)-2-(6-hydroxy-3-oxo-3H-xanthen-9-yl)benzoic acid] the Kd [4] was > 10000 nM, the “selectivity for HsmPheRS over HscPheRS” value [5] was > 1,000 fold and the Kd [6] was < 10 nM.
With `O=C(CCCCCCC(=O)Nc1ccc(CNC(=O)c2ccc(C(=O)O)c(C3=c4cc5c6c(c4Oc4c3cc3c7c4CCCN7CCCC3)CCC[N+]=6CCCC5)c2)cc1)NO` [SAHA-NCT] the Kd [7] was 9 nM, the IC50 [8] was 8 nM and the Kd [8] was 2 nM. The Kd [9] was 9 nM.
